From publication PMC8750417, “Intracellular Amplifiers of Reactive Oxygen Species Affecting Mitochondria as Radiosensitizers” (Cancers, 2021)

Test system: Jurkat cells
Assay: Total intracellular ROS (CM-DCFH-DA), Jurkat
Assay type: cell-based, human
Conditions: 1 h
Description: Monitoring total intracellular ROS (tROS)
A2780 cells were seeded in RPMI 1640 medium containing 5% FBS, 1% L-glutamine and 1% penicillin/streptomycin in a 24-well microtiter plate (total volume 0.5 mL) at a density of 200 cells/µL one day before the experiment. On the day of the experiment, the cells were washed twice with DPBS buffer and the medium was replaced with HBSS (Hanks' Balanced Salt solution, 500 μL). CM-DCFH-DA (5-(6-)chloromethyl-2',7'- dichlorodihydrofluorescein diacetate, Thermo- Fisher) solution (0.1 mM in DMSO, 5 μL) was added (final concentration 1 µM) and the cells were incubated in the dark chamber filled with CO2 (5%) at 37 °C for 15 min. […] Finally, the fluorescence of live cells (λex = 488 nm, λem = 525 nm) in the suspensions was determined by using flow cytometry (Figure 4A, 5C).
Intracellular ROS release in Jurkat cells was monitored analogously (Figure S58).
Figure S58. […] OY-axis “Fluorescence”: the increase of the mean fluorescence (λex = 488 […]

**Q.** With `CC1(C)OB(c2ccc(COC(=O)N(Cc3cn(Cc4ccc(Cn5cc(Cc6ccccc6)nn5)cc4)nn3)[c-]3cccc3)cc2)OC1(C)C.[Fe+2].c1cc[cH-]c1` [2c] as the compound, how does the “total ROS (tROS) vs background” value read?
**A.** significantly higher than its background levels
